Measured values as given in patent US8404673B2, “Carbocyclic GlyT1 receptor antagonists” (Hoffmann-La Roche Inc., priority 2009, dated 2013).

Each molecule was assayed against T1, mGlyT-1b (Mus musculus, UniProt P28571) (assay: Glycine Uptake Inhibition Assay (mGlyT-1b)). Conditions: IC50 data.
T1 construct: host or cells: Flp-in-CHO
T1 sequence (P28571 1-651 isoform P28571-2): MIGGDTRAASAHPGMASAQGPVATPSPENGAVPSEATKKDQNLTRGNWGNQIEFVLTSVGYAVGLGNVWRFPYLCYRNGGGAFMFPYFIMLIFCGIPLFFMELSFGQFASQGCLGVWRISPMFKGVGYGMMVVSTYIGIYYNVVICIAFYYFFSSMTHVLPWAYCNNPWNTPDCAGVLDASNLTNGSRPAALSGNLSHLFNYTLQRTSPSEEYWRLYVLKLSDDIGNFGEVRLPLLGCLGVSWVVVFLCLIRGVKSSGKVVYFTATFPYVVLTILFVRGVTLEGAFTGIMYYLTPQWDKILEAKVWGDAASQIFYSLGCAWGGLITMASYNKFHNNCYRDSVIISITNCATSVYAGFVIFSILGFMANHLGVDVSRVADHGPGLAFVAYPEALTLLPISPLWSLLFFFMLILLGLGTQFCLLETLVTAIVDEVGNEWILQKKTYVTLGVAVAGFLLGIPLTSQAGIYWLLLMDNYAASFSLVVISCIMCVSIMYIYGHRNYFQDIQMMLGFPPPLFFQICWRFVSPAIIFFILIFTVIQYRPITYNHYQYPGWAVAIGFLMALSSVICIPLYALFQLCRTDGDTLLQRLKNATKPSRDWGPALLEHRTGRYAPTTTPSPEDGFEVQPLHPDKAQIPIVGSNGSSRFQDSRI
Assay type: cell-based

In order of falling IC50:
1. CCc1cccc(C)c1C(=O)N[C@H]1CCC[C@H]1N1CCCC1 (relative stereo) [Example 94, cis-2-Ethyl-6-methyl-N-(2-pyrrolidin-1-yl-cyclopentyl)-benzamide]  98.4 nM
2. COc1cc(C(F)(F)F)cc(Br)c1C(=O)N[C@H]1CCC[C@H]1N1CCCC1 (racemic) [Example 101, 2-Bromo-6-methoxy-N-cis-(2-pyrrolidin-1-yl-cyclopentyl)-4-trifluoromethyl-benzamide]  94.8 nM
3. COc1cc(C(F)(F)F)cc(OC(F)F)c1C(=O)N[C@H]1CCC[C@H]1N1CCCC1 (relative stereo) [Example 133, 2-Difluoromethoxy-6-methoxy-N-((cis)-2-pyrrolidin-1-yl-cyclopentyl)-4-trifluoromethyl-benzamide]  90.8 nM
4. CCc1cc(C(F)(F)F)ccc1C(=O)N[C@H]1CCC[C@H]1N1CCCC1 (relative stereo) [Example 80, cis-2-Ethyl-N-(2-pyrrolidin-1-yl-cyclopentyl)-4-trifluoromethyl-benzamide]  89.6 nM
5. CSc1cc(C(F)(F)F)ccc1C(=O)N[C@@H]1CCC[C@@H]1N1CCCC1 (single isomer, unassigned) [Example 84, (+)-2-Methylsulfanyl-N-(2-pyrrolidin-1-yl-cyclopentyl)-4-trifluoromethyl-benzamide]  89 nM
6. O=C(N[C@H]1CCC[C@H]1N1CCCC1)c1c(Cl)cc(C(F)(F)F)cc1Cl (relative stereo) [Example 108, cis-2,6-Dichloro-N-(2-pyrrolidin-1-yl-cyclopentyl)-4-trifluoromethyl-benzamide]  88.2 nM
7. COc1cc(C(F)(F)F)cc(SC)c1C(=O)N[C@@H]1CCC[C@@H]1N1CCCC1 (racemic) [Example 55, 2-Methoxy-6-methylsulfanyl-N-((1RS,2SR)-2-pyrrolidin-1-yl-cyclopentyl)-4-trifluoromethyl-benzamide]  84.6 nM
8. CCc1cccc(C2CC2)c1C(=O)N[C@H]1CCC[C@H]1N1CCCC1 (racemic) [Example 98, cis-2-Cyclopropyl-6-ethyl-N-(2-pyrrolidin-1-yl-cyclopentyl)-benzamide]  80.1 nM
9. O=C(N[C@H]1CCC[C@H]1N1CCCC1)c1ccc(C(F)(F)F)cc1C(F)(F)F (single isomer, unassigned) [Example 78, (−)-N-(2-Pyrrolidin-1-yl-cyclopentyl)-2,4-bis-trifluoromethyl-benzamide]  75.4 nM
10. O=C(N[C@H]1CCC[C@H]1N1CCCC1)c1c(F)cc(C(F)(F)F)cc1C(F)(F)F (relative stereo) [Example 105, cis-2-Fluoro-N-(2-pyrrolidin-1-yl-cyclopentyl)-4,6-bis-trifluoromethyl-benzamide]  75.1 nM
11. CSc1cc(C(F)(F)F)cc(C(F)(F)F)c1C(=O)N[C@@H]1CCC[C@@H]1N1CCCC1 (single isomer, unassigned) [Example 119, (−)-cis-2-Methylsulfanyl-N-(2-pyrrolidin-1-yl-cyclopentyl)-4,6-bis-trifluoromethyl-benzamide]  65.4 nM
12. COc1cc(C(F)(F)F)cc(SC)c1C(=O)N[C@@H]1CCC[C@@H]1N1CCCC1 (single isomer, unassigned) [Example 59, (+)-2-Methoxy-6-methylsulfanyl-N-(2-pyrrolidin-1-yl-cyclopentyl)-4-trifluoromethyl-benzamide]  61.1 nM
13. CSc1cc(C(F)(F)F)ccc1C(=O)N[C@@H]1CCC[C@@H]1N1CCCC1 (single isomer, unassigned) [Example 85, (−)-2-Methylsulfanyl-N-(2-pyrrolidin-1-yl-cyclopentyl)-4-trifluoromethyl-benzamide]  60.4 nM
14. CSc1cc(C(F)(F)F)cc(C(F)(F)F)c1C(=O)N[C@@H]1CCC[C@@H]1N1CCCC1 (single isomer, unassigned) [Example 118, (+)-cis-2-Methylsulfanyl-N-(2-pyrrolidin-1-yl-cyclopentyl)-4,6-bis-trifluoromethyl-benzamide]  60 nM
15. CCc1cc(C(F)(F)F)cc(OC)c1C(=O)N[C@H]1CCC[C@H]1N1CCCC1 (relative stereo) [Example 140, 2-Ethyl-6-methoxy-N-((cis)-2-pyrrolidin-1-yl-cyclopentyl)-4-trifluoromethyl-benzamide]  55.4 nM
16. CCc1cc(C(F)(F)F)cc(C(F)(F)F)c1C(=O)N[C@H]1CCC[C@H]1N1CCCC1 (relative stereo) [Example 137, 2-Ethyl-N-((cis)-2-pyrrolidin-1-yl-cyclopentyl)-4,6-bis-trifluoromethyl-benzamide]  46.2 nM
17. O=C(N[C@H]1CCC[C@H]1N1CCCC1)c1ccc(C(F)(F)F)cc1C1CC1 (racemic) [Example 91, 2-Cyclopropyl-cis-N-(2-pyrrolidin-1-yl-cyclopentyl)-4-trifluoromethyl-benzamide]  45.3 nM
18. O=C(NC1CCCC1N1CCCC1)c1ccc(C(F)(F)F)cc1C1CC1 (single isomer, unassigned) [Example 96, (+2-Cyclopropyl-N-cis-(-2-pyrrolidin-1-yl-cyclopentyl)-4-trifluoromethyl-benzamide]  42.8 nM
19. Cc1cc(C(F)(F)F)cc(C)c1C(=O)N[C@H]1CCC[C@H]1N1CCCC1 (relative stereo) [Example 132, 2,6-Dimethyl-N-((cis)-2-pyrrolidin-1-yl-cyclopentyl)-4-trifluoromethyl-benzamide]  36.5 nM
20. O=C(N[C@H]1CCC[C@H]1N1CCCC1)c1c(C2CC2)cc(C(F)(F)F)cc1C(F)(F)F (relative stereo) [Example 130, 2-Cyclopropyl-N-((cis)-2-pyrrolidin-1-yl-cyclopentyl)-4,6-bis-trifluoromethyl-benzamide]  35.4 nM
21. COc1cc(C(F)(F)F)cc(SC)c1C(=O)N[C@@H]1CCC[C@@H]1N1CCCC1 (single isomer, unassigned) [Example 58, (−)-2-Methoxy-6-methylsulfanyl-N-(2-pyrrolidin-1-yl-cyclopentyl)-4-trifluoromethyl-benzamide]  27.6 nM
22. Cc1cc(C(F)(F)F)cc(C(F)(F)F)c1C(=O)N[C@H]1CCC[C@H]1N1CCCC1 (relative stereo) [Example 103, cis-2-Methyl-N-(2-pyrrolidin-1-yl-cyclopentyl)-4,6-bis-trifluoromethyl-benzamide]  24.9 nM
23. COc1cc(C(F)(F)F)cc(C2CC2)c1C(=O)N[C@H]1CCC[C@H]1N1CCCC1 (relative stereo) [Example 131, 2-Cyclopropyl-6-methoxy-N-((cis)-2-pyrrolidin-1-yl-cyclopentyl)-4 trifluoromethyl-benzamide]  19.9 nM
24. CSc1cc(C(F)(F)F)cc(C(F)(F)F)c1C(=O)N[C@H]1CCC[C@H]1N1CCCC1 (racemic) [Example 104, cis-2-Methylsulfanyl-N-(2-pyrrolidin-1-yl-cyclopentyl)-4,6-bis-trifluoromethyl-benzamide]  18.9 nM

Same assay, conditions: [3H]-glycine uptake, Flp-in-CHO cells transfected with mGlyT-1b cDNA, 20 min preincubation at 22° C.; read-out: IC50 data

With `CSc1cc(C(F)(F)F)cc(C(F)(F)F)c1C(=O)N[C@H]1CCC[C@H]1NC1CCCC1` (racemic) [Example 134, N-((cis)-2-Cyclopentylamino-cyclopentyl)-2-methylsulfanyl-4,6-bis-trifluoromethyl-benzamide] the IC50 was 95.7 nM.

Same assay, conditions: read-out: IC50 data

In order of falling IC50:
1. CCc1cc(C(F)(F)F)ccc1C(=O)N[C@H]1CCC[C@H]1NC1CCCC1 (single isomer, unassigned) [Example 92, (+)-N-(2-Cyclopentylamino-cyclopentyl)-2-ethyl-4-trifluoromethyl-benzamide]  95.4 nM
2. CCc1cc(C(F)(F)F)ccc1C(=O)N[C@H]1CCC[C@H]1NC1CCCC1 (racemic) [Example 89, cis-N-(2-Cyclopentylamino-cyclopentyl)-2-ethyl-4-trifluoromethyl-benzamide]  79.4 nM
3. COc1cc(C(F)(F)F)cc(SC)c1C(=O)N[C@@H]1CCC[C@@H]1NC1CCC1 (racemic) [Example 61, N-((1RS,2SR)-2-Cyclobutylamino-cyclopentyl)-2-methoxy-6-methylsulfanyl-4-trifluoromethyl-benzamide]  65.9 nM
4. COc1cc(C(F)(F)F)cc(SC)c1C(=O)N[C@@H]1CCC[C@@H]1NC1CCCC1 (racemic) [Example 65, N-((1RS,2SR)-2-Cyclopentylamino-cyclopentyl)-2-methoxy-6-methylsulfanyl-4-trifluoromethyl-benzamide]  56.4 nM
5. O=C(N[C@H]1CCC[C@H]1NC1CCCC1)c1ccc(C(F)(F)F)cc1C1CC1 (racemic) [Example 102, N-((1SR,2RS)-2-Cyclopentylamino-cyclopentyl)-2-cyclopropyl-4-trifluoromethyl-benzamide]  35.1 nM
6. COc1cc(C(F)(F)F)cc(SC)c1C(=O)N[C@@H]1CCC[C@@H]1NC1CCC1 (single isomer, unassigned) [Example 62, (−)-cis-N-(-2-Cyclobutylamino-cyclopentyl)-2-methoxy-6-methylsulfanyl-4-trifluoromethyl-benzamide]  31.6 nM
7. COc1cc(C(F)(F)F)cc(SC)c1C(=O)N[C@H]1CCC[C@H]1NC1CCCC1 (single isomer, unassigned) [Example 68, (−)-N-(2-Cyclopentylamino-cyclopentyl)-2-methoxy-6-methylsulfanyl-4-trifluoromethyl-benzamide]  19.4 nM
